# Square brackets hold non-standard residues; d marks the D form. Ends that are not written are not given here.
# What was measured:
# plasma LH concentration [1] = experiment: Plasma LH in anestrous Beagle bitches during antagonist infusion and after cKP10 bolus; type: in vivo, dog; conditions: n = 6
# Description: Thirteen adult anestrous Beagle bitches were used for this study. Six dogs with a median age of 89 months (range 43–122 months) were used as control group, receiving cKP10 without an antagonist. Eight dogs with a median age of 52 months (range 31–116 months) were used for the antagonist experiments. One dog was first used in the control group and 12 months later for the antagonist experiments. Of the eight dogs used for the antagonist experiments, four received p271, p354, and p356. In two of the eight dogs both p354 and p356 were tested, while in the remaining two dogs only p271 was tested, in order to test every antagonist in 6 dogs. The time between testing of different kisspeptin antagonists was at least 5 days (range 5–15 days) to ensure that there were no peptide residues. Kisspeptin antagonist p234 per se was not tested in vivo because p271 is in fact p234 with a penetratin tag to enhance passage across the blood-brain barrier, as has been described for use with peripheral administration.
# Kisspeptin antagonists (50 μg/kg/h) were administered continuously for three hours via a catheter in the cephalic vein. Two hours after the start of the infusion, a single bolus of cKP10 (0.5 μg/kg) was administered intravenously. Blood samples were collected from the jugular vein by venipuncture at -40 min and 0 min before the antagonist infusion, and then every 30 min for two hours. After the administration of cKP10, blood samples were collected at 10, 20, 40, and 60 min (i.e., 130, 140, 160, and 180 min after the start of the antagonist infusion).
# As a control, KP stimulation tests (without the administration of a kisspeptin antagonist) were performed in six dogs. Blood samples were collected from the jugular vein by venipuncture at -40 min and 0 min before, and then at 10, 20, 40, and 60 min after administration of cKP10 (0.5 μg/kg). Plasma LH concentrations were measured in all blood samples.
# Plasma LH concentrations were measured with a heterologous radioimmunoassay validated for the dog, as described previously. The intra- and interassay CVs for values above 0.5 μg/l were 2.3 and 10.5%, respectively, and the limit of quantitation was 0.3 μg/l.
# In both groups of dogs (experimental and control), the basal plasma LH concentration was calculated for each dog as the mean of the values at –40 and 0 min before cKP10 or antagonist administration. All LH values that exceeded the mean of all basal samples plus 3 SD were attributed to pulsatile secretion and were treated as outliers and excluded from statistical analysis. Log transformation of plasma LH concentrations was used because data were not normally distributed. A linear mixed model was used to analyze differences in plasma LH concentrations before and after KP10, with or without a kisspeptin antagonist (group effects: p271, p354, p356, and controls), with Bonferroni correction. P<0.05 was considered significant.
# human GPR54 = human GPR54 (Homo sapiens, UniProt Q969F8); experiment: Flow cytometric calcium flux assay, KP10-induced response after 15 min pre-incubation with antagonist; type: cell-based; design: host or cells: rat hematopoietic CHEM1 cells expressing endogenous Galpha15; conditions: all concentrations 10^-13 to 10^-5 M; 10^-8 M KP10; 15 min pre-incubation; P = 1.00
# Method: In vitro analyses of the effects of kisspeptin and kisspeptin antagonists, were performed using HT[…] cells (rat hematopoietic CHEM1 cells expressing endogenous Gα15 and, stably expressing the human GPR54 receptor (Millipore BV, the Netherlands), CHEM1-GPR54. Cells were counted and suspended in HBSS+++ at a concentration of 5*10^6 cells/ml. To load the cells with the fluorescent dye ester they were incubated in HBSS+++ adjusted to a concentration of 2 μM Fluo-3 AM (Molecular Probes, Life Technologies, the Netherlands) for 1h at 37°C under agitation in the dark. After incubation, the cells were washed by adding HBSS+++ to a volume of 10 ml followed by centrifugation (5 min, 150 x g) to remove excess of Fluo-3AM. […] Thereafter the tube was removed briefly and 25 μl peptide (see below) was added, after which aspiration and analysis continued. For statistical analyses fluorescent data recorded during the time interval 30-60 seconds after initiation of measurement were used. […] We then assessed whether these antagonists could compete with KP10 for its receptor. […] For this purpose 25 μl quantities of the antagonists were added to 200 μl of Fluo-3 AM labelled cells (10^6 cells/ml) and incubated for 15 min. […] Peptides p354 and p356 were tested three times with both human and canine KP10; while peptides p234 and p271 were tested three times with human KP10 and once with canine KP10. To analyze the effects of different concentrations of the KP antagonists on the calcium response due to KP10 addition, the differences in fluorescence before and after KP10 were calculated (the calcium response). The calcium response ratios were calculated as the calcium response of the CHEM1-GPR54 cells pre-incubated with different concentrations of KP antagonist and the control (the calcium response of the cells without KP antagonist). These calcium response ratios were log transformed and used for further analysis by univariate analysis of variance, with the Dunnett's test as post hoc test. The calcium response ratios were set as dependent variables and the different concentrations of the antagonists and the two types of KP10 were used as fixed factors. The residuals were normally distributed.
# CHEM1-GPR54 cells = molecular target: T1, CHEM1-GPR54 cells (Homo sapiens, UniProt Q969F8); experiment: Preliminary calcium flux assay with adherent CHEM1-GPR54 cells (unpublished); type: cell-based; conditions: too few repeats for statistics
# T1 construct: host or cells: rat hematopoietic CHEM1 cells expressing endogenous Galpha15
# LH pulses = conditions: intact and ovariectomized ewes; continuous intracerebroventricular; cited from earlier work
# plasma LH concentration [2] = experiment: Other studies with p271 up to 600 μg/kg/h in castrated male dogs and anestrous bitches (unpublished); type: in vivo, dog; conditions: doses of up to 600 μg/kg/h, unpublished data
# Method: These doses also had no effect on plasma LH concentration in the castrated male dogs or on the KP10-induced LH response in the female dogs (unpublished data). It is therefore unlikely that the lack of antagonistic effects is related to the dose of 50 μg/kg/h used in the present study.
# [3] = antagonist 50 μg/kg/h iv, cKP10 0.5 μg/kg iv
# T1 sequence (Q969F8 whole entry): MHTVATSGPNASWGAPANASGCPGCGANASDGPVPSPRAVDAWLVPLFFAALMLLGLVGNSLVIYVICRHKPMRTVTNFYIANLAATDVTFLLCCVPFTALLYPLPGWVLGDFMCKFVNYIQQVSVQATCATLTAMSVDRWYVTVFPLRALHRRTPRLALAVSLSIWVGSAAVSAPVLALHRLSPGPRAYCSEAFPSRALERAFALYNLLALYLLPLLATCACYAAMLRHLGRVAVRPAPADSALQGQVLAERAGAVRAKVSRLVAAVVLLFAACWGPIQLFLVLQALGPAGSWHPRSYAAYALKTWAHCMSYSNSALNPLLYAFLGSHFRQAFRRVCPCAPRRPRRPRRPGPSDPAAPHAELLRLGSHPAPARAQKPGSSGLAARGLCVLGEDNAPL
# Sequence of human GPR54 (Q969F8 whole entry): as above
substance,measurement,setting,value
"RRMKWKKY[dA]NWNGFG[dW]RF-NH2 [p271, p234 with a penetratin tag]","Median (and range) plasma LH, t = 30",plasma LH concentration [1]; 30 min of antagonist infusion 50 μg/kg/h iv,3.9 (2.2–5.4) μg/L
same,"Median (and range) plasma LH, t = 60",plasma LH concentration [1]; 60 min of antagonist infusion 50 μg/kg/h iv,5.2 (2.5–10.0) μg/L
same,"Median (and range) plasma LH, t = 90",plasma LH concentration [1]; 90 min of antagonist infusion 50 μg/kg/h iv,4.5 (2.8–6.3) μg/L
same,"Median (and range) plasma LH, t = 120","plasma LH concentration [1]; 120 min of antagonist infusion 50 μg/kg/h iv, before cKP10",6.0 (3.2–7.5) μg/L
same,median maximum increment in plasma LH concentration after cKP10 during antagonist administration,plasma LH concentration [1]; [3],12.2 µg/L
same,range of maximum increment in plasma LH concentration after cKP10 during antagonist administration,plasma LH concentration [1]; [3],4.7 to 18.2 µg/L
same,"Median (and range) plasma LH, t = 130 / t = 10*","plasma LH concentration [1]; antagonist infusion 50 μg/kg/h iv, 10 min after cKP10 0.5 μg/kg iv",16.2 (9.3–24.1) μg/L
same,"Median (and range) plasma LH, t = 140 / t = 20*","plasma LH concentration [1]; antagonist infusion 50 μg/kg/h iv, 20 min after cKP10 0.5 μg/kg iv",10.0 (5.7–12.6) μg/L
same,"Median (and range) plasma LH, t = 160 / t = 40*","plasma LH concentration [1]; antagonist infusion 50 μg/kg/h iv, 40 min after cKP10 0.5 μg/kg iv",6.4 (4.8–8.8) μg/L
same,"Median (and range) plasma LH, t = 180 / t = 60*","plasma LH concentration [1]; antagonist infusion 50 μg/kg/h iv, 60 min after cKP10 0.5 μg/kg iv",4.8 (3.5–7.3) μg/L
same,"Median (and range) plasma LH, Basal",plasma LH concentration [1]; before antagonist infusion (mean of -40 and 0 min per dog),4.0 (2.9–5.9) μg/L
same,effect on basal plasma LH concentration,"plasma LH concentration [1]; continuous iv 50 μg/kg/h, anestrous bitches",did not cause significant alterations
same,difference in calcium response ratio between controls and antagonist,human GPR54,not significant
same,"inhibition of KP10-induced calcium response, adherent cells",CHEM1-GPR54 cells,could not be inhibited
same,effect on LH pulses,LH pulses,inhibited LH pulses
same,effect on KP10-induced LH response in female dogs,plasma LH concentration [2]; anestrous bitches,had no effect
same,effect on plasma LH concentration in castrated male dogs,plasma LH concentration [2],had no effect
